Measurements published in patent publication US20260215425A1, “NITRIFICATION INHIBITORS” (The University of Melbourne, priority 2022, published 2026).

How the values were obtained:
[1] = tested on: soil A; experiment: soil incubation, NH4+ and NO3- in soil A; settings: 5 mol % of applied fertiliser-N, 21 days
Procedure: Soils used in these studies were air-dried, ground and sieved (2 mm) prior to use. Soil microcosm incubations were carried out in 250 mL polypropylene specimen containers (Sarstedt, Germany), containing 20 g oven dry-weight equivalent of soil. Microcosms were treated with half the volume of water required to meet the desired water-filled pore space (WFPS %) of 60% and pre-incubated at 25° C. for seven days to revive soil microbial activity. Following pre-incubation, the remaining volume to reach the WFPS % was applied as one of the treatment solutions: (1) fertiliser ((NH4)2SO4,) 100 mg kg^−1, (2) fertiliser+0.5 mol % 4-MPT, (3) fertiliser+2.5 mol % 4-MPT, (4) fertiliser+5 mol % 4-MPT or (5) fertiliser+5 mol % compound 1, with three replicates of each treatment per time interval (n=3). Throughout the incubation period soil microcosms were kept aerated by removing the lid for 10 minutes every 2-3 days to allow gas exchange, and moisture levels were replenished via addition of Milli-Q water as required. At the end of the desired incubation period (i.e., after 0, 3, 7, 14, and 21 days, respectively), soil microcosms were removed and destructively sampled by treating with 2 M aqueous potassium chloride solution (KCl, 100 mL) and shaking for 1 h. Soil-KCl solutions were filtered (Whatman No. 42), and the filtrates were stored at −20° C. until the conclusion of the experiment, when all KCl extracts were analysed for the concentration of soil mineral nitrogen from ammonium (NH4^+—N) and from nitrate (NO3^−—N; the conversion of NO2 to NO3^− in soils is very rapid) after appropriate dilutions using Segmented Flow Analysis (San++, Skalar, Breda, The Netherlands). Results are reported as the mean of three replicates, errors reported are standard errors of the mean. Errors associated with raw data were carried through calculations using standard error propagation protocols.
To determine the nitrification inhibitory effect of 4-MPT in vivo, soil incubations were performed by measuring concentration-time profiles for NH4^+ and NO3^− in an acidic Australian soil (soil A, pH=5.9) over 21 days. 4-MPT was tested at three different concentrations (0.5 mol %, 2.5 mol % and 5 mol % of applied fertiliser-N) and compared with the alkyl-substituted compound 1 (5 mol % of applied fertiliser-N) to confirm the requirement of the N-propargyl substitutent for inhibitory activity (FIG. 5).

[2] = tested on: N. multiformis; experiment: standard nitrification inhibition assay (NO2- production, Griess); format: cell-based, Nitrosospira multiformis; settings: [NH4+]=3 mM, [inhibitor]=0.3 mM (10 mol %), pH 7.5, 30° C., 60 min
Procedure: (§1) Cells of N. multiformis and N. europaea were cultivated to the mid-exponential growth phase (OD600=0.1, [NO2^−] approximately 800 μM) and harvested by filtration onto 0.2 μm membrane filters (Mixed Cellulose Ester (MCE), Sigma Aldrich). The cells were washed with 2×100 mL of 0.1 M sodium phosphate buffer (NaPB), containing 0.2 mM MgSO4 at pH 7.5. The cells were washed from the filter paper by transferring it to a sterile 50 mL tube and resuspending in NaPB (15 mL), followed by 5 s of vortexing (Ratek, Australia) and 3 s of sonication (Vevor, Australia). […] Experiments were performed in triplicate.
(§2) In a deep 96-well plate (2 mL capacity), 980 μL of the bacterial inoculum (OD600=0.03) was added to the inhibitor (10 μL, 30 mmol L^−1 in Milli-Q water), the solutions were mixed thoroughly and pre-incubated in the dark for 5 minutes at 100 rpm and 30° C. (NH4)2SO4 (10 μL, 150 mM, from a prepared sterile solution containing 19.8 g L^−1 (NH4)2SO4 in Milli-Q water) was then added using a multi-channel pipette. The plate was covered with a with an O2 permeable membrane to ensure aeration (Breathe-Easy® sealing membrane, Sigma Aldrich) and incubated in a temperature-regulated rotary incubator (Ratek, Australia) in the dark for 60 minutes at 30° C. and 100 rpm. An aliquot of the reaction solution ([…]) was transferred to a 96-well spectrophotometric plate to which 50 µL of Griess reagent was added. The colour was allowed to develop for 15 minutes at room temperature, and the absorbance was measured at 540 nm. Each assay was accompanied by control treatments to determine the 0% and 100% NO2 signal. The percentage inhibition was calculated according to eqn. 1 from the NO2 production of the cells in NaPB (i) without additive (‘untreated cells’: 0% signal), (ii) with [NH4^+]=3 mM (‘uninhibited’ cells: 100% signal) and (iii) with [NH4^+]=3 mM and [inhibitor]=0.3 mM and 0.03 mM (10 mol % and 1 mol % of [NH4^+], ‘inhibited cells’). Experiments were performed in triplicate.

[3] = tested on: N. europaea; experiment: as above; format: cell-based, Nitrosomonas europaea; settings: [NH4+]=3 mM, [inhibitor]=0.3 mM (10 mol %), pH 7.5, 30° C., 60 min
Procedure: as §1, §2

CCCn1cc(C)nn1 [Compound 1, 4-Methyl-1-(n-propyl)-1H-1,2,3-triazole]
NH4+ loss / conversion in soil [1]: negligible levels of NH4^+ remaining after 21 days of incubation | % Inhibition NM [2]: complete loss of inhibitory activity | % Inhibition NE [3]: complete loss of inhibitory activity
